# In patent US10961252B2, “Quinazoline and indole compounds to treat medical disorders” (Achillion Pharmaceuticals, Inc., priority 2016, dated 2021):
# Where a name gives a salt, the structure may show the parent alone.
# Tested on: Normal Human Serum (NHS)
# Assay: Hemolysis assay: lysis of rabbit erythrocytes (RE) by Normal Human Serum (NHS)
# Format: cell-based
# Settings: rabbit erythrocyte, 0.5 h, Table 1, hemolysis of rabbit erythrocytes with NHS, GVB0 plus 10 mM Mg-EGTA, 37° C., read-out: IC50
# Description: The hemolysis assay was previously described by G. Ruiz-Gomez, et al., J. Med. Chem. (2009) 52: 6042-6052. Prior to the assay, the optimum concentration of Normal Human Serum (NHS) needed to achieve 100% lysis of rabbit erythrocytes (RE) is determined by titration. In the assay, NHS (Complement Technology) is diluted in GVB^0 Buffer (0.1% gelatin, 5 mM Veronal, 145 mM NaCl, 0.025% NaN3, pH 7.3, Complement Technology) plus 10 mM Mg-EGTA and incubated with test compound at various concentrations for 15 minutes at 37° C. RE (Complement Technology) freshly suspended in GVB^0 plus 10 mM Mg-EGTA are added to a final concentration of 1×10^8 cells/mL and reactions are incubated for 30 minutes at 37° C. Positive control reactions (100% lysis) consist of GVB^0 plus 10 mM Mg-EGTA with NHS and RE but without test compound; negative control reactions (0% lysis) consist of GVB^0 plus 10 mM Mg-EGTA with RE only. Samples are centrifuged at 2000 g for 3 minutes and supernatants collected. Absorbance at 405 nm (A405) is recorded using a microplate spectrophotometer. IC50 values are calculated by nonlinear regression from the percentage of hemolysis as a function of test compound concentration.
row,SMILES,IC50 [µM]
1,"COc1cc2c(N)nc(N3CCN(C(=O)CC4NCCS4)CC3)nc2c(F)c1OC (stereo not shown) [Compound 1, 1-(4-(4-Amino-8-fluoro-6,7-dimethoxyquinazolin-2-yl)piperazin-1-yl)-2-(thiazolidin-2-yl)ethan-1-one Hydrochloride]",> 10
2,"COc1cc2c(N)nc(N3CCN(C(=O)C[C@@H]4C[C@@H]5CCC[C@@H]5N4)CC3)nc2c(F)c1OC [Compound 2, 1-(4-(4-Amino-8-fluoro-6,7-dimethoxyquinazolin-2-yl)piperazin-1-yl)-2-((2S,3aS,6aS)-octahydrocyclopenta[b]pyrrol-2-yl)ethan-1-one Hydrochloride]",< 1
3,"COc1cc2c(N)nc(N3CCN(C(=O)C[C@@H]4C[C@@H]5CCCC[C@@H]5N4)CC3)nc2c(F)c1OC [Compound 3, 1-(4-(4-Amino-8-fluoro-6,7-dimethoxyquinazolin-2-yl)piperazin-1-yl)-2-((2S,3aS,7aS)-octahydro-1H-indol-2-yl)ethan-1-one Hydrochloride]",< 1
4,"CCN[C@H](CC(=O)N1CC=C(c2nc(N)c3cc(OC)c(OC)c(F)c3n2)CC1)c1ccc(F)cc1 [Compound 4, (R)-1-(4-(4-Amino-8-fluoro-6,7-dimethoxyquinazolin-2-yl)-3,6-dihydropyridin-1(2H)-yl)-3-(ethylamino)-3-(4-fluorophenyl)propan-1-one]",< 1
5,"CCN[C@H](CC(=O)N1CCC(c2nc(N)c3cc(OC)c(OC)c(F)c3n2)CC1)c1ccc(F)cc1 [Compound 5, (R)-1-(4-(4-Amino-8-fluoro-6,7-dimethoxyquinazolin-2-yl)piperidin-1-yl)-3-(ethylamino)-3-(4-fluorophenyl)propan-1-one]",1 to 10
6,"CCN[C@H](CC(=O)N1CCC(c2nc(N)c3cc(OC)c(OC)c(F)c3n2)=C(C(=O)OC)C1)c1ccc(F)cc1 [Compound 6, Methyl (R)-4-(4-amino-8-fluoro-6,7-dimethoxyquinazolin-2-yl)-1-(3-(ethylamino)-3-(4-fluorophenyl)propanoyl)-1,2,5,6-tetrahydropyridine-3-carboxylate]",1 to 10
7,"CCN[C@H](CC(=O)N1CCC(c2nc(N)c3cc(OC)c(OC)c(F)c3n2)C(C(=O)OC)C1)c1ccc(F)cc1 (stereo partly drawn) [Compound 7, Methyl 4-(4-amino-8-fluoro-6,7-dimethoxyquinazolin-2-yl)-1-((R)-3-(ethylamino)-3-(4-fluorophenyl)propanoyl)piperidine-3-carboxylate]",> 10
8,"CCN[C@H](CC(=O)N1CCC(c2nc(N)c3cc(OC)c(OC)c(F)c3n2)=C(C(=O)O)C1)c1ccc(F)cc1 [Compound 8, (R)-4-(4-Amino-8-fluoro-6,7-dimethoxyquinazolin-2-yl)-1-(3-(ethylamino)-3-(4-fluorophenyl)propanoyl)-1,2,5,6-tetrahydropyridine-3-carboxylic Acid]",> 10
9,"CCN[C@H](CC(=O)N1CCC(c2nc(N)c3cc(OC)c(OC)c(F)c3n2)C(C(=O)O)C1)c1ccc(F)cc1 (stereo partly drawn) [Compound 9, 4-(4-Amino-8-fluoro-6,7-dimethoxyquinazolin-2-yl)-1-((R)-3-(ethylamino)-3-(4-fluorophenyl)propanoyl)piperidine-3-carboxylic acid]",1 to 10
10,"CCN[C@H](CC(=O)N1C(C)C=C(c2nc(N)c3cc(OC)c(OC)c(F)c3n2)CC1C)c1ccc(F)cc1 (stereo partly drawn) [Compound 10, (3R)-1-(4-(4-Amino-8-fluoro-6,7-dimethoxyquinazolin-2-yl)-2,6-dimethyl-3,6-dihydropyridin-1(2H)-yl)-3-(ethylamino)-3-(4-fluorophenyl)propan-1-one]",< 1
11,"CCN[C@H](CC(=O)N1CCN(c2nc(N)c3cc4c(c(F)c3n2)OC(F)(F)O4)CC1)c1ccc(F)cc1 [Compound 12, (R)-1-(4-(8-Amino-2,2,4-trifluoro-[1,3]dioxolo[4,5-g]quinazolin-6-yl)piperazin-1-yl)-3-(ethylamino)-3-(4-fluorophenyl)propan-1-one]",1 to 10
12,"CCN[C@H](CC(=O)N1CC2CCC(C1)N2c1nc(N)c2cc(OC)c(OC)c(F)c2n1)c1ccc(F)cc1 [Compound 13, (3R)-1-(8-(4-Amino-8-fluoro-6,7-dimethoxyquinazolin-2-yl)-3,8-diazabicyclo[3.2.1]octan-3-yl)-3-(ethylamino)-3-(4-fluorophenyl)propan-1-one]",< 1
13,"COc1cc2c(N)nc(N3CC4CCC(C3)N4C(=O)C=Cc3ccc(F)cc3)nc2c(F)c1OC [Compound 14, 1-(3-(4-Amino-8-fluoro-6,7-dimethoxyquinazolin-2-yl)-3,8-diazabicyclo[3.2.1]octan-8-yl)-3-(4-fluorophenyl)prop-2-en-1-one]",> 10
14,"CCN[C@H](CC(=O)N1CC2CCC1CN2c1nc(N)c2cc(OC)c(OC)c(F)c2n1)c1ccc(F)cc1 (stereo partly drawn) [Compound 15, (3R)-1-(5-(4-Amino-8-fluoro-6,7-dimethoxyquinazolin-2-yl)-2,5-diazabicyclo[2.2.2]octan-2-yl)-3-(ethylamino)-3-(4-fluorophenyl)propan-1-one]",> 10

# Same assay, conditions: rabbit erythrocyte, 0.5 h, Table 2, hemolysis of rabbit erythrocytes with NHS, GVB0 plus 10 mM Mg-EGTA, 37° C., read-out: IC50 (Stars)
row,SMILES,IC50 [µM]
1,"CCN[C@H](CC(=O)N1CC2CCC(C1)N2c1nc(N)c2cc(OC)c(OC)c(F)c2n1)c1ccc(C#N)cc1 [Compound 16, 4-((1R)-3-(8-(4-Amino-8-fluoro-6,7-dimethoxyquinazolin-2-yl)-3,8-diazabicyclo[3.2.1]octan-3-yl)-1-(ethylamino)-3-oxopropyl)benzonitrile]",< 1
2,"CCN[C@H](CC(=O)N1CC=C(c2nc(N)c3cc(OC)c(OC)c(F)c3n2)CC1)c1ccc(C#N)cc1 [Compound 17, (R)-4-(3-(4-(4-Amino-8-fluoro-6,7-dimethoxyquinazolin-2-yl)-3,6-dihydropyridin-1(2H)-yl)-1-(ethylamino)-3-oxopropyl)benzonitrile]",< 1
3,"COc1cc2c(N)nc(C3=CCN(C(=O)C[C@@H]4C[C@@H]5CCCC[C@@H]5N4)CC3)nc2c(F)c1OC [Compound 18, 1-(4-(4-Amino-8-fluoro-6,7-dimethoxyquinazolin-2-yl)-3,6-dihydropyridin-1(2H)-yl)-2-((2S,3aS,7aS)-octahydro-1H-indol-2-yl)ethan-1-one TFA salt]",< 1

# Same assay, conditions: rabbit erythrocyte, 0.5 h, Table 3, hemolysis of rabbit erythrocytes with NHS, GVB0 plus 10 mM Mg-EGTA, 37° C., read-out: IC50 (Stars)
row,SMILES,IC50 [µM]
1,"COc1cc(C)c2[nH]ccc2c1CN1CCC(F)(F)CC1c1ccc(C(=O)O)cc1 (stereo not shown) [Compound 19, 4-(4,4-difluoro-1-((5-methoxy-7-methyl-1H-indol-4-yl)methyl)piperidin-2-yl)benzoic Acid]",> 10
2,"COc1cc(C)c2[nH]ccc2c1CN1CCCC[C@H]1C1CCC(C(=O)O)CC1 (stereo partly drawn) [Compound 20, (1R,4S)-4-((S)-1-((5-Methoxy-7-methyl-1H-indol-4-yl)methyl)piperidin-2-yl) Cyclohexanecarboxylic Acid]",> 10
3,"COc1cc(C)c2[nH]ncc2c1CN1CC[C@@H](C)C[C@H]1c1ccc(C(=O)O)cc1 [Compound 21, 4-((2S, 4R)-1-((5-Methoxy-7-methyl-1H-indazol-4-yl) Methyl)-4-methylpiperidin-2-yl) Benzoic Acid]",> 10
4,"COc1cc(C)c2[nH]ccc2c1CN1CC[C@@H](C)C[C@H]1c1ccc(S(C)(=N)=O)cc1 (stereo partly drawn) [Compound 22, 5-Methoxy-7-methyl-4-(((2 S,4R)-4-methyl-2-(4-(S-methylsulfonimidoyl)phenyl)piperidin-1-yl)methyl)-1H-indole]",< 1
5,"COc1cc(C)c2[nH]ccc2c1CN1CC[C@H](C)C[C@@H]1c1ccc(S(C)(=N)=O)cc1 (stereo partly drawn) [Compound 23, 5-Methoxy-7-methyl-4-(((2R,4S)-4-methyl-2-(4-(S-methylsulfonimidoyl)phenyl)piperidin-1-yl)methyl)-1H-indole]",> 10
6,"COc1cc(C)c2[nH]c(C)cc2c1CN1CC[C@@H](C)C[C@H]1c1ccc(C(=O)O)cc1 [Compound 24, 4-((2S, 4R)-1-((5-Methoxy-2,7-dimethyl-1H-indol-4-yl) Methyl)-4-methylpiperidin-2-yl) Benzoic Acid]",> 10
7,"COc1cc(C)c2[nH]ccc2c1CN1CCC(C)CC1c1ccc(S(C)(=N)=O)cc1 (stereo not shown) [Compound 25, 5-Methoxy-7-methyl-4-((4-methyl-2-(4-(S-methylsulfonimidoyl)phenyl)piperidin-1-yl)methyl)-1H-indole]",< 1
8,"COc1cc(C)c2[nH]ccc2c1CN1CCC(C)CC1c1ccc(P(=O)(O)O)cc1 (stereo not shown) [Compound 26, 4-(1-((5-Methoxy-7-methyl-1H-indol-4-yl)methyl)-4-methylpiperidin-2-yl)phenylphosphonic Acid]",< 1
9,"COc1cc(C)c2[nH]ccc2c1CN1CCC(C)CC1c1ccc(C(=O)NO)cc1 (stereo not shown) [Compound 27, N-Hydroxy-4-(1-((5-methoxy-7-methyl-1H-indol-4-yl)methyl)-4-methylpiperidin-2-yl)benzamide]",< 1
10,"COc1cc(C)c2[nH]ccc2c1CN1CCC(C)CC1c1ccc(C(=O)O)c2c1CCCC2 (stereo not shown) [Compound 28, 4-(1-((5-Methoxy-7-methyl-1H-indol-4-yl)methyl)-4-methylpiperidin-2-yl)-5,6,7,8-tetrahydronaphthalene-1-carboxylic Acid]",< 1
11,"COc1cc(C)c2[nH]ccc2c1CN1CC[C@@H](C)C[C@H]1c1ccc(P(C)(=O)O)cc1 [Compound 29, 4-((2S, 4R)-1-((5-Methoxy-7-methyl-1H-indol-4-yl)methyl)-4-methylpiperidin-2-yl) Phenyl (Methyl) Phosphinic Acid]",< 1
